Assay results taken from patent publication US5494813A, “Nematode control with proteinase inhibitors” (Nickerson Biocem Limited, priority 1991, dated 1996).
Entries after “also recorded” stand apart in the source; their conditions may differ.

Assays:
[1] = system: proteolytic activity of the 5HT-induced exudate from J2; test: Proteolytic activity of the 5HT-induced exudate from J2 of G. pallida (biotin/gelatin microtitre plate assay); format: biochemical, Globodera pallida; conditions: for Relative Activity (% of controls at that pH), pH 5 / Relative Activity (% of controls at that pH), pH 6.8: CpTi 10 μg/ml, rice preparations 30 μg/ml, other concentrations not given; for Relative Activity (% of controls at that pH), pH 6.8: maize preparation 20 μg/ml
Experimental: Freshly hatched juveniles of G. pallida were incubated in 2.5 mM 5'hydroxytryptamine in water at 20° C. for 4 h. This caused material to exude from the mouth which can be visualized at the mouth by allowing the protein stain Ponceau S to diffuse through a small aliquot of the experimental sample containing the nematodes under a microscope slide and coverslip. Worms were removed from the medium by centrifugation at 3000 g for 2 min before the fluid was dialyzed at 4° C. against distilled water overnight. The material was freeze-dried in aliquots at -70° C. until use and reconstituted to 2.5 μg protein/ml dH2 O at 5° C. immediately before use. Assays were carried out in a reaction mixture prepared by mixing 50 μl of this solution with 20 μl of either 100 mM phosphate buffer at pH 6.8 or 100 mM titrate/phosphate buffer at pH 5 plus either 10 μl of the inhibitor under test at the concentrations given in Table 7 or dH2 O for corresponding control rates for the uninhibited exudate.
The assays were carried out by coating microtitre plates (NUNC) with 50 μl of 0.01 μg/ml biotin/gelatin in carbonate buffer (pH 9.6) overnight at 4° C. The plates were blocked with 1% gelatin and washed with PBS before adding 75 μl of freshly prepared reaction mixture for 18 h. The reaction was stopped by washing wells eight times with PBS-tween before adding 100 μl of avidin-conjugated alkaline phosphatase with 1% goat serum to each well for 1 h. The wells were washed as before with PBS-tween followed by 2 rinses in PBS before addition of 100 μl of 1 mg/ml P-nitrophenyl phosphate in substrate buffer (10% diethanolamine and 0.5 mM MgCl2) at pH 9.8. The color development was read at 405 nm using a plate reader (Biorad). All samples were compared against a reference blank which lacked nematode exudate preparation in the reaction mixture.

[2] = system: endoproteinase activity of G. pallida; test: Endoproteinase activity of G. pallida female homogenate on RUBISCO with inhibitors/activators (SDS-PAGE densitometry); format: biochemical, Globodera pallida; conditions: RUBISCO substrate; for % enzyme activity: pH 5.7, 25 C, mean ± SEM, control 100 ± 7, 30 min
Experimental: Females of G. pallida were removed from potato roots and homogenised in EDTA (1 mm)-NaOH buffered distilled water (pH 6.0). The nematode homogenate was clarified by centrifugation at 13,000 g for 2 min and passed through non-absorbent cotton wool. The filtrate was used directly as the source of crude proteinases. pH was controlled using 0.1M of citrate-phosphate, sodium-phosphate and phosphate-carbonate buffers for pH 3.0-6.0, pH 6.5-7.5 and 8.0-8.5 respectively. These buffers were mixed with equal volume of the nematode homogenate and RUBISCO (150 μg) in 0.04% SDS resulting in a final reaction volume of 75 μl . […] The tubes were kept on ice for 30 min for full precipitation to occur. The supernatant was clarified by centrifugation (13,000 g, 2 min). The liberation of TCA-soluble amino groups from digested RUBISCO was used to quantify the proteolytic activity of nematode homogenates using 2, 4,6-trinitrobenzsulphonic acid (TNBS). TNBS reagent was made by mixing one volume of 0.3% (w/v) TNBS in water with four volume of 4% (w/v) sodium tetraborate in 0.15M NaOH. 250 μl of the reagent was mixed with 75 μl of sample and the reaction was allowed to proceed for 60 min at 30° C. before terminating by adding […] of 0.5M HCl. The absorbance at 340 nm was read against both homogenate and RUBISCO controls. Results are expressed as nmol of TCA-soluble amino groups liberated per min at 25° C. using a standard curve based on L-leucine in CP buffer.
Subsequent work was based on pH 5.7 using CP buffer. Females of G. pallida were rinsed in 50 mM CP buffer plus 1 mM EDTA and homogenised in ice-cold 50 mM CP buffer, centrifuging and filtering as before. The EDTA wash step was omitted for experiments using inhibitors or activators (see below).
25 μl of RUBISCO (from a stock solution in CP buffer of 1 mg/ml containing 0.04% SDS) was added to 20 μl of the sample homogenate and either 5 μl CP buffer or 5 μl of inhibitor/activator. After incubation for 60 min, the reaction was stopped by adding 30 μl of denaturing buffer and boiling for 2.5 min.
Stock inhibitor and activator solutions (Table 3) were made up in buffer and added to the nematode extract. The inhibitor/activator was pre-incubated with the enzyme solutions for 30 min at 25° C. before addition to the protein substrate
The gel was stained using Coomassie Brilliant Blue.
In order to elucidate the effect of activators and inhibitors on the proteolytic activity of nematode proteinase(s), RUBISCO was treated with the extract at 25 C. at a substrate protein-nematode protein ratio (w/w) of 8. After a 30 min incubation, the reaction mixture was terminated and analysed by SDS-PAGE. The RUBISCO substrate band in the gel was quantified densitometrically (Joyce Loble Chromscan 3), and the amount of protein remaining gave an estimation of the rate of activity of the proteinase.

For `O=C(O)CN(CCN(CC(=O)O)CC(=O)O)CC(=O)O` [EDTA], the “Effect on proteolytic activity of the exudate at pH 5 (in words)” value (shortened to “Effect … at pH 5 (in words)”) [1] was “stimulated”, the “Relative Activity (% of controls at that pH), pH 5” value [1] was > 100% and the “Effect on proteolytic activity of the exudate at pH 6.8 (in words)” value ([1]; pH 6.8) was “inhibited”. For the same molecule, the “Relative Activity (% of controls at that pH), pH 6.8” value ([1]; pH 6.8) was 93%.
With `CC(C)C[C@H](NC(=O)[C@H]1O[C@@H]1C(=O)O)C(=O)NCCCCN=C(N)N` [E-64, L-trans-epoxysuccinyl-leucylamide-(4-guanidino)-butane] the “Inhibition of proteolytic activity” value ([2]; pH 5.7) was 21%, the “% enzyme activity” value [2] was 79 ± 6% and the “Effect … at pH 5 (in words)” value [1] was “inhibited”. For the same molecule, the “Relative Activity (% of controls at that pH), pH 5” value [1] was 0% and the “Relative Activity (% of controls at that pH), pH 6.8” value ([1]; pH 6.8) was 5%.
With `N[C@@H](CS)C(=O)O` [Cys, cysteine] the “Effect on endoproteinase activity (in words)” value ([2]; pH 5.7) was “stimulated”, the “% enzyme activity” value [2] was 112 ± 5% and the “Effect … at pH 5 (in words)” value [1] was “stimulated”. The “Relative Activity (% of controls at that pH), pH 5” value [1] was > 100% and the “Relative Activity (% of controls at that pH), pH 6.8” value ([1]; pH 6.8) was 100%.
With p-aminomercuribenzoate [PAMBA] the “Effect on endoproteinase activity (in words)” value ([2]; pH 5.7) was “potent inhibitor; also recorded: almost total inhibition” and the “% enzyme activity” value [2] was 3 ± 4%.
`CC(=O)[O][Hg][c]1ccccc1` [PMA] was tested, and the “Effect on endoproteinase activity (in words)” value ([2]; pH 5.7) was “almost total inhibition” and the “% enzyme activity” value [2] was 11 ± 6%.
With `OC(CS)C(O)CS` (centres unmarked) [DTT] the “Effect on endoproteinase activity (in words)” value ([2]; pH 5.7) was “stimulated” and the “% enzyme activity” value [2] was 128 ± 11%.
